Counter-ions that a name gives are not always drawn.
Assays:
Format in all cases: cell-based
[1] = target: T1, α7 nAChR (Homo sapiens, UniProt P36544); assay: α7 concentration-response on co-application with 10 µM PNU-120596; settings: peak currents, co-applied with 10 µM PNU-120596, Hill fit; for IMax (PNU Activation): approximation only
T1 construct: expressed in transfected cells; host or cells: Xenopus laevis oocytes (injected RNA)
Procedure: (§1) Compounds were co-applied at a concentration of 100 µM with 30 µM racemic TQS (Figure 3A). All compounds except S4, S5, and S8 gave large responses when co-applied with TQS, consistent with silent agonism of α7 (see Table S1 for ANOVA). Active compounds were also evaluated across a range of concentrations with the alternative PAM, PNU-120596 (Figure 3B). The curve-fit values for Imax (Table 1) should be taken only as approximation of the relative efficacies of the compounds, due to the large variability frequently observed in PNU-120596-potentiated responses, as evidenced by the large SEMs of the responses obtained with high concentrations.
(§2) Figure 3 Responses of α7 nAChR to sulfonium compounds coapplied with PAMs. (A) Potentiation of α7 responses with 30 µM racemic TQS. Shown are the average net-charge responses of seven or eight oocytes ± SEM. (B) Concentration-response studies of peak currents generated by compounds that gave positive responses with TQS, coapplied with 10 µM PNU-120596. Each point represents the average (±SEM) of at least four oocytes.
(§3) Experiments were conducted using OpusXpress 6000A (Molecular Devices, Union City, CA, USA). Both the voltage and current electrodes were filled with 3 M KCl. Oocytes were voltage-clamped at −60 mV at room temperature (24 °C). The oocytes were bath-perfused with Ringer’s solution (115 mM NaCl, 2.5 mM KCl, 1.8 mM CaCl2, 10 mM HEPES, and 1 μM atropine, pH 7.2) at 2 mL/min for α7 receptors, or 4 mL/min for heteromeric nAChR. To evaluate the effects of experimental compounds, responses were compared to control ACh-evoked responses, defined as the average of two initial applications of ACh made before test applications. ACh control concentrations were 60 µM for α7 receptors; 100 µM for α4(3)β2(2) and α3β4 receptors; 30 µM for α4β2α6β2β3 and muscle-type (αβ1εδ) receptors; and 10 µM for α4(3)β2(2) and α4(2)β2(2)α5 receptors.
(§4) Solutions were applied from 96-well plates via disposable tips. Drug applications were 12 s in duration, followed by 181 s washout periods for α7 receptors, or 6 s in duration followed by 301 s washout periods for heteromeric nAChR. The responses were calculated as both peak current amplitudes and net charge, as previously described. Data were collected at 50 Hz, filtered at 20 Hz for α7 receptors or filtered at 5 Hz for heteromeric nAChR, and analyzed by Clampfit (Molecular Devices, San Jose, CA, USA) and Excel (Microsoft, Redmond, WA, USA). Data were expressed as means ± SEM from at least four oocytes for each experiment and plotted with Kaleidagraph 4.5.2 (Abelbeck Software, Reading, PA, USA). Multi-cell averages were calculated for comparisons of complex responses. Averages of the normalized data were calculated for each of the 10,322 points in each of the 206.44 s traces (acquired at 50 Hz), as well as the standard errors for those averages.

[2] = target: T1, α7 nAChR; assay: α7 responses on co-application with the type II PAM TQS (silent agonism); settings: for α7 functional classification (silent agonist / inactive): inactive alone, active with a PAM = silent agonist
Procedure: as §1, §2
The human nAChR clones were obtained from Jon Lindstrom (University of Pennsylvania, Philadelphia, PA, USA). Mouse muscle subunit clones were obtained from Jim Boulter (Salk Institute, La Jolla, CA, USA) and Paul Gardner (Dartmouth, Hanover, NH, USA). The human resistance-to-cholinesterase 3 (RIC3) clone was obtained from Millet Treinin (Hebrew University, Jerusalem, Israel) and co-injected with α7 to improve the level and speed of α7 receptor expression without affecting the pharmacological properties of the receptors. Subsequent to linearization and purification of the plasmid DNAs, RNAs were prepared using the mMessage mMachine in vitro RNA transcription kit (Ambion, Austin, TX, USA).
as §3, §4

[3] = target: T1, α7 nAChR; assay: Inhibition of α7 ACh-evoked responses; settings: for effect on 60 µM ACh response at 1 mM: compound 1 mM co-applied with 60 µM ACh
Procedure: Figure 4 Effects sulfonium compounds on α7 ACh-evoked net-charge responses. (A) Effects of the sulfonium compounds at 100 µM co-applied with 60 µM relative to responses to 60 µM ACh applied alone. Data are the averages (±SEM) from seven or eight cells under each condition. (B) Effects of select sulfonium compounds at 1 mM co-applied with 60 µM relative to responses to 60 µM ACh applied alone. Data are the averages (±SEM) from seven or eight cells under each condition. Statistical significance was determined by pairwise t-test with p values corrected for multiple comparisons; * p < 0.05, ** p < 0.001.
The sulfonium compounds that were active with TQS but produced little inhibition of ACh response at a concentration of 100 µM were tested as inhibitors of ACh response at a concentration of 1 mM (Figure 4B).
We tested S8 across a range of concentrations for its ability to inhibit 60 µM ACh responses (Figure 5A). Note that we use 60 µM as an ACh control because this concentration gives nearly maximal (93%) net-charge responses, with the time course of the responses roughly following the speed of solution exchange. […] We tested whether inhibition of α7 responses by S8 was surmountable by increasing ACh concentration, consistent with a competitive mechanism of inhibition. However, since α7 responses to concentrations of ACh greater than 60 µM occur more rapidly than solution exchange in the chamber, we first pre-applied 5 µM S8 prior to the co-application of 5 µM S8 with either 60 µM or 1 mM ACh (Figure 5B). The 60 µM net-charge responses were reduced to 28 ± 2% of controls (n = 8) and 60 µM peak currents to 21 ± 3 % controls. The 1 mM net-charge responses were reduced to 56 ± 6 % of those obtained without S8 co-application, although the S8 co-application increased the peak-current amplitudes compared to 60 µM controls from 1.78 ± 0.15 to 3.72 ± 0.81 (n = 8).
Figure 5 Inhibition of α7 ACh-evoked responses by S8. (A) Concentration-response studies of α7 net-charge responses to 60 µM ACh co-applied with increasing concentrations of S8. To confirm the stability of the ACh responses, applications of ACh plus S8 were alternated with applications of ACh alone. Data are the averages of eight cells (±SEM). See text for curve-fit values. (B) Effects of 5 µM S8 on responses to either 60 µM or 1 mM ACh. The traces shown across the top are the averaged raw data from seven cells, each normalized to the peak current of the first ACh control response shown. In order to assure that the S8 was present at 5 µM throughout the ACh-evoked responses, a 30 s pre-application was made of 5 µM S8 alone. The lower traces show averaged responses to 60 µM or 1 mM ACh alone or with the 5 µM S8 pre- and co-application. The details of the data are described in Methods.
as §3
Solutions were applied from 96-well plates via disposable tips. Drug applications were 12 s in duration, followed by 181 s washout periods for α7 receptors, or 6 s in duration followed by 301 s washout periods for heteromeric nAChR. […]

T1 sequence (P36544 23-502): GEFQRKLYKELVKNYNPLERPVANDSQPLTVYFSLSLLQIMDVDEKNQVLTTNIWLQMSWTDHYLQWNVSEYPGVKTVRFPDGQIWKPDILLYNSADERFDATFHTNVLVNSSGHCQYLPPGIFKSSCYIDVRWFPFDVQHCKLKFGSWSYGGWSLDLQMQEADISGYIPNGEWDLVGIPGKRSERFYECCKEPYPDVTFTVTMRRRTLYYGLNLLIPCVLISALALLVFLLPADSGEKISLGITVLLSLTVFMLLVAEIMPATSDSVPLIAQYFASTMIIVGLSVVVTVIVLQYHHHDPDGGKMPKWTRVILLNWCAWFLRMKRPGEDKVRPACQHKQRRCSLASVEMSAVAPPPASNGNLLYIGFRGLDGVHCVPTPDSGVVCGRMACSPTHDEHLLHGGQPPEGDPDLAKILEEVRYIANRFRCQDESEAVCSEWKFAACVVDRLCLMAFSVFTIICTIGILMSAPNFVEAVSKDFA

Row | SMILES | IMax (PNU Activation) [1] | response when co-applied with TQS ([2]; 100 µM compound with 30 µM racemic TQS, net charge) | EC50 ([1]; read-out: EC50 (PNU Activation)) | effect on 60 µM ACh response at 1 mM [3] | α7 functional classification (silent agonist / inactive) [2] | inhibition of responses to 60 µM ACh ([3]; compound co-applied at 100 µM, net charge) | relative activity as α7 silent agonist / desensitizer (rank order) ([2]; 100 µM with 30 µM TQS, Figure 3A)
1 | C[S+](C)C.[I-] [Compound S1, trimethylsulfonium iodide] | 9.1 ± 0.05 | produced potentiated α7 currents | – | – | – | – | –
2 | C[S+](C)c1cc([N+](=O)[O-])ccc1O.[Br-] [Compound S10, (2-hydroxy-5-nitrophenyl)dimethylsulfonium bromide] | 4.6 ± 0.1 | – | 45.5 ± 50.6 µM | increased the amplitude of the ACh-evoked responses | silent agonist activity | – | –
3 | C[S+](C)c1ccc(O)cc1 [Compound S9, (4-hydroxyphenyl)dimethylsulfonium methyl sulfate] | 3.98 ± 0.14 | – | – | significant inhibition | silent agonist activity | no inhibition | most desensitizing
